# Results reported in patent publication US20260234144A1 (TAY THERAPEUTICS LIMITED, priority 2023, published 2026).
# Tested on: R223X stop codon in the mutated luciferase gene, ADXC8 luciferase reporter cell line
# Experiment: cells
# Assay type: cell-based
# Settings: 24 h, ADXC8 cells, 24 hours; for EC (100% of 200 uM G418 response): read-out: pC100%, negative logarithm of the concentration giving the same response as 200 μM G418; for Emax: read-out: Fold Over Control, maximum fold response relative to 200 μM G418
Structure (SMILES),EC (100% of 200 uM G418 response) [µM],Emax [%]
CSc1ccc(-c2ccc3c(N)nc(NC4CCN(C)CC4)nc3n2)cc1 [Example 103],1 to 10,–
CN1CCC(Nc2nc(N)c3ccc(-c4cccc(O)c4)nc3n2)CC1 [Example 104],10 to 100,–
CN(C)Cc1ccc(-c2ccc3c(N)nc(NC4CCN(C)CC4)nc3n2)cc1 [Example 105],10 to 100,100 to 3000
CN1CCC(Nc2nc(N)c3ccc(-c4ccccc4O)nc3n2)CC1 [Example 106],> 100,0 to 100
CNC(=O)c1ccccc1-c1ccc2c(N)nc(NC3CCN(C)CC3)nc2n1 [Example 107],> 100,0 to 100
CN1CCC(Nc2nc(N)c3ccc(-c4ccc(F)c(F)c4)nc3n2)CC1 [Example 108],1 to 10,–
CNCc1cccc(-c2ccc3c(N)nc(NC4CCN(C)CC4)nc3n2)c1 [Example 109],10 to 100,100 to 3000
Cc1ccccc1-c1ccc2c(N)nc(NC3CCN(C)CC3)nc2n1 [Example 110],1 to 10,–
CN1CCC(Nc2nc(N)c3ccc(-c4ccncc4)nc3n2)CC1 [Example 111],10 to 100,–
CN1CCC(Nc2nc(N)c3ccc(-c4cccc(C#N)c4)nc3n2)CC1 [Example 112],1 to 10,–
CN1CCC(Nc2nc(N)c3ccc(-c4ccccc4N)nc3n2)CC1 [Example 113],10 to 100,100 to 3000
CN1CCC(Nc2nc(N)c3ccc(-c4cncn4C)nc3n2)CC1 [Example 114],> 100,0 to 100
"CN1CCC(Nc2nc(N)c3ccc(-c4ccccc4Cl)nc3n2)CC1 [Example 115, 7-(2-chlorophenyl)-N^2-(1-methylpiperidin-4-yl) pyrido[2,3-d]pyrimidine-2,4-diamine]",1 to 10,100 to 3000
CN1CCC(Nc2nc(N)c3ccc(-c4ccccc4S(C)(=O)=O)nc3n2)CC1 [Example 116],> 100,0 to 100
CN1CCC(Nc2nc(N)c3ccc(-c4cnccn4)nc3n2)CC1 [Example 117],> 100,0 to 100
CN1CCC(Nc2nc(N)c3ccc(-c4ccccc4C#N)nc3n2)CC1 [Example 118],10 to 100,–
"CN1CCC(Nc2nc(N)c3ccc(-c4ncco4)nc3n2)CC1 [Example 119, N^2-(1-methylpiperidin-4-yl)-7-(oxazol-2-yl)pyrido[2,3-d]pyrimidine-2,4-diamine]",10 to 100,100 to 3000
"Cc1cc(-c2ccccc2)nc2nc(NCCCN3CCOCC3)nc(N)c12 [Example 120, 5-methyl-N2-(3-morpholinopropyl)-7-phenylpyrido[2,3-d]pyrimidine-2,4-diamine]",1 to 10,100 to 3000
"Cc1nc2nc(NC3CCN(C)CC3)nc(N)c2c(C)c1C [Example 121, 5,6,7-trimethyl-N2-(1-methylpiperidin-4-yl)pyrido[2,3-d]pyrimidine-2,4-diamine]",1 to 10,100 to 3000

Structure (SMILES),EC (100% of 200 uM G418 response) [µM],Emax [%]
"COC(=O)c1cnc2nc(NC3CCN(C)CC3)nc(N)c2c1 [Example 122, methyl 4-amino-2-[(1-methylpiperidin-4-yl)amino]pyrido[2,3-d]pyrimidine-6-carboxylate]",> 100,0 to 100
"CN1CCC(Nc2nc(N)c3cc(CO)cnc3n2)CC1 [Example 123, {4-amino-2-[(1-methylpiperidin-4-yl)amino]pyrido[2,3-d]pyrimidin-6-yl}methanol]",> 100,0 to 100
"CC(=O)c1cnc2nc(NC3CCN(C)CC3)nc(N)c2c1 [Example 125, 1-{4-amino-2-[(1-methylpiperidin-4-yl)amino]pyrido[2,3-d]pyrimidin-6-yl}ethenone]",> 100,0 to 100
"CC(O)c1cnc2nc(NC3CCN(C)CC3)nc(N)c2c1 (centres unmarked) [Example 126, 1-{4-amino-2-[(1-methylpiperidin-4-yl)amino]pyrido[2,3-d]pyrimidin-6-yl}ethanol]",> 100,0 to 100
"Nc1nc(NC23CCN(CC2)CC3)nc2nc(-c3ccccc3)c3c(c12)CCC3 [Example 127, 6-phenyl-N^3-(quinuclidin-4-yl)-8,9-dihydro-7H-cyclopenta[4,5]pyrido[2,3-d]pyrimidine-1,3-diamine]",0.1 to 1,100 to 3000
"Cc1c(Cl)c(-c2ccccc2)nc2nc(NCCCN3CCOCC3)nc(N)c12 [Example 128, 6-chloro-5-methyl-N2-(3-morpholinopropyl)-7-phenylpyrido[2,3-d]pyrimidine-2,4-diamine]",1 to 10,–
"Nc1nc(NCCCN2CCOCC2)nc2nc(-c3ccccc3)c3c(c12)CCC3 [Example 129, N^3-(3-morpholinopropyl)-6-phenyl-8,9-dihydro-7H-cyclopenta[4,5]pyrido[2,3-d]pyrimidine-1,3-diamine]",1 to 10,–
"Cc1nc2nc(NC3CCN(C)CC3)nc(N)c2c(C)c1Cl [Example 130, 6-chloro-5,7-dimethyl-N^2-(1-methylpiperidin-4-yl)pyrido[2,3-d]pyrimidine-2,4-diamine]",1 to 10,100 to 3000
"Cc1cc(C)c2c(N)nc(NC3CCCN(C(=O)OC(C)(C)C)CC3)nc2n1 (centres unmarked) [Example 131, tert-butyl 4-((4-amino-5,7-dimethylpyrido[2,3-d]pyrimidin-2-yl)amino)azepane-1-carboxylate]",> 100,0 to 100
Cc1cc(C)c2c(N)nc(NC3CC4(CCN(C(=O)OC(C)(C)C)CC4)C3)nc2n1 [Example 132],> 100,0 to 100
Cc1cc(C)c2c(N)nc(NCC3CCN(C(=O)OC(C)(C)C)CC3)nc2n1 [Example 133],> 100,0 to 100
Cc1cc(C)c2c(N)nc(NC3CC4(C3)CN(C(=O)OC(C)(C)C)C4)nc2n1 [Example 134],> 100,0 to 100
Cc1cc(C)c2c(N)nc(NC3CCCCN(C(=O)OC(C)(C)C)C3)nc2n1 (centres unmarked) [Example 135],> 100,0 to 100
Cc1cc(C)c2c(N)nc(NC[C@@H]3CN(C(=O)OC(C)(C)C)CCO3)nc2n1 [Example 136],> 100,0 to 100
Cc1cc(C)c2c(N)nc(NC3CC4CC[C@@H](C3)N4C(=O)OC(C)(C)C)nc2n1 (some centres unmarked) [Example 137],10 to 100,100 to 3000
Cc1cc(C)c2c(N)nc(NC[C@H]3CN(C(=O)OC(C)(C)C)CCO3)nc2n1 [Example 138],> 100,0 to 100
Cc1cc(C)c2c(N)nc(NCC3CN(C(=O)OC(C)(C)C)C3)nc2n1 [Example 139],10 to 100,100 to 3000
"Cc1cc(C)c2c(N)nc(NC3CCCNCC3)nc2n1 (centres unmarked) [Example 140, A2-(azepan-4-yl)-5,7-dimethylpyrido[2,3-d]pyrimidine-2,4-diamine]",1 to 10,100 to 3000
"Cc1cc(C)c2c(N)nc(NCC3CCNCC3)nc2n1 [Example 141, 5,7-dimethyl-N^2-(piperidin-4-ylmethyl)pyrido[2,3-d]pyrimidine-2,4-diamine]",10 to 100,100 to 3000

Structure (SMILES),EC (100% of 200 uM G418 response) [µM],Emax [%]
"Cc1cc(C)c2c(N)nc(NCCN(C)C)nc2n1 [Example 142, N^2-(2-(dimethylamino)ethyl)-5,7-dimethylpyrido[2,3-d]pyrimidine-2,4-diamine]",1 to 10,–
Cc1cc(C)c2c(N)nc(NCCN(C)c3ccccc3)nc2n1 [Example 143],> 31.6,0 to 100
Cc1cc(C)c2c(N)nc(NCC3CCCCN3C)nc2n1 (centres unmarked) [Example 144],1 to 10,100 to 3000
Cc1cc(C)c2c(N)nc(NC3CCN(CC4CC4)CC3)nc2n1 [Example 145],1 to 10,100 to 3000
Cc1cc(C)c2c(N)nc(NC3CCN(C4CC4)CC3)nc2n1 [Example 146],1 to 10,100 to 3000
Cc1cc(C)c2c(N)nc(NCCCN(C)c3ccccc3)nc2n1 [Example 147],> 31.6,0 to 100
Cc1cc(C)c2c(N)nc(NCC(C)(C)N3CCOCC3)nc2n1 [Example 148],10 to 100,100 to 3000
Cc1cc(C)c2c(N)nc(NCC(C)(C)CN(C)C)nc2n1 [Example 149],> 31.6,0 to 100
Cc1cc(C)c2c(N)nc(NCCCN3CCCCC3C)nc2n1 (centres unmarked) [Example 150],1 to 10,100 to 3000
Cc1cc(C)c2c(N)nc(NCCN3CC(C)OC(C)C3)nc2n1 (centres unmarked) [Example 151],> 31.6,0 to 100
Cc1cc(C)c2c(N)nc(NCC3CN(C)CCO3)nc2n1 (centres unmarked) [Example 152],10 to 100,100 to 3000
Cc1cc(C)c2c(N)nc(NC3CN(C)C3)nc2n1 [Example 153],> 31.6,0 to 100
Cc1cc(C)c2c(N)nc(NCCCN(C)C)nc2n1 [Example 154],1 to 10,–
Cc1cc(C)c2c(N)nc(N[C@H]3CCCC[C@@H]3N(C)C)nc2n1 [Example 155],> 31.6,0 to 100
Cc1cc(C)c2c(N)nc(NCC3(N(C)C)CCOCC3)nc2n1 [Example 156],1 to 10,–
Cc1cc(C)c2c(N)nc(NCC3CCN(C4CC4)C3)nc2n1 (centres unmarked) [Example 157],1 to 10,100 to 3000
Cc1cc(C)c2c(N)nc(NC3CCN(Cc4ccccc4)CC3)nc2n1 [Example 158],0.1 to 1,100 to 3000
Cc1cc(C)c2c(N)nc(NCCC3CCCN(C)C3)nc2n1 (centres unmarked) [Example 159],1 to 10,–
Cc1cc(C)c2c(N)nc(NCCN3CCNC3=O)nc2n1 [Example 160],> 100,0 to 100
